According to ChEMBL document CHEMBL1201862, “PubChem BioAssay data set” (2004):
Values joined by “and” are separate entries in the source; they are usually repeats but may differ in a detail not shown here. Equal entries are not always repeated.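 Cells were grown in 96-well plates and exposed to each compound for 48 hours at five concentrations; endpoints were interpolated linearly between bracketing concentrations, or set to the highest concentration if not reached. GI50 is the concentration that inhibits growth by half.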 Active and inactive are the calls of the source. No stated cut-off is given here; in the data, active = GI50 up to about 1.1 µM and inactive = higher.

Experiments:
Test in all cases: inhibition of tumour cell growth, NCI panel, 48 h
[1] = test system: RPMI-8226
[2] = test system: U-251
[3] = test system: IGROV-1
[4] = test system: SF-539
[5] = test system: K562
[6] = test system: UACC-257
[7] = test system: HL-60
[8] = test system: HCC 2998
[9] = test system: OVCAR-3
[10] = test system: EKVX
[11] = test system: NCI-H522
[12] = test system: SK-MEL-5
[13] = test system: LOX IMVI
[14] = test system: OVCAR-5
[15] = test system: SK-OV-3
[16] = test system: SN12C
[17] = test system: Malme-3M
[18] = test system: KM12
[19] = test system: CAKI-1
[20] = test system: RXF 393

Compound	GI50 [1]	GI50 [2]	GI50 [3]	GI50 [4]	GI50 [5]	GI50 [6]	GI50 [7]	GI50 [8]	GI50 [9]	GI50 [10]	GI50 [11]	GI50 [12]	GI50 [13]	GI50 [14]	GI50 [15]	GI50 [16]	GI50 [17]	GI50 [18]	GI50 [19]	GI50 [20]
Cc1nc(-c2nc([N+](=O)[O-])c([N+](=O)[O-])[nH]2)cs1	> 100 µM (inactive)	> 100 µM (inactive)	> 100 µM (inactive)	> 100 µM (inactive)	> 100 µM (inactive)	> 100 µM (inactive)	> 100 µM (inactive)	> 100 µM (inactive)	> 100 µM (inactive)	> 100 µM (inactive)	> 100 µM (inactive)	> 100 µM (inactive)	> 100 µM (inactive)	> 100 µM (inactive)	> 100 µM (inactive)	> 100 µM (inactive)	> 100 µM (inactive)	> 100 µM (inactive)	> 100 µM (inactive)	> 100 µM (inactive)
CCOC1=NC(C(F)(F)F)(C(F)(F)F)N=C(N2CCOCC2)O1	> 100 µM (inactive)	> 100 µM (inactive)	> 100 µM (inactive)	> 100 µM (inactive)		> 100 µM (inactive)	89.5 µM (inactive)	> 100 µM (inactive)	> 100 µM (inactive)	> 100 µM (inactive)	> 100 µM (inactive)	> 100 µM (inactive)	> 100 µM (inactive)	> 100 µM (inactive)	> 100 µM (inactive)	> 100 µM (inactive)		> 100 µM (inactive)	> 100 µM (inactive)	80.7 µM (inactive)
CN(C)C(=O)/C=C/c1c[nH]c(=O)[nH]c1=O	> 316 µM (inactive)	> 500 µM (inactive)	> 500 µM (inactive)	> 500 µM (inactive)	> 500 µM (inactive)	> 500 µM (inactive)	296 µM (inactive)	> 500 µM (inactive)	> 500 µM (inactive)	> 281 µM (inactive)	> 500 µM (inactive)	> 500 µM (inactive)	> 500 µM (inactive)	> 500 µM (inactive)	> 254 µM (inactive)	> 500 µM (inactive)	> 500 µM (inactive)	> 500 µM (inactive)	> 500 µM (inactive)	> 500 µM (inactive)
O=C1c2cc3c(cc2[C@@H]2C(O)[C@H]4O[C@H]4C4CCN1C42)OCO3 (some centres not stated)	> 37.5 µM (inactive)		> 37.5 µM (inactive)	> 37.5 µM (inactive)	> 37.5 µM (inactive)		> 37.5 µM (inactive)	> 37.5 µM (inactive)	> 37.5 µM (inactive)	> 37.5 µM (inactive)	> 37.5 µM (inactive)		> 37.5 µM (inactive)	> 37.5 µM (inactive)	> 37.5 µM (inactive)	> 37.5 µM (inactive)	> 37.5 µM (inactive)	> 37.5 µM (inactive)	25.3 µM (inactive)	
CCCCCCCCCCSCC(CO)NC(=O)/C=C/c1c(C)[nH]c(=O)[nH]c1=O (configuration not stated)	23.1 µM (inactive) and 33.5 µM (inactive)	532 nM (active) and 355 nM (active)	2.43 µM (inactive) and 2.48 µM (inactive)	1.46 µM (inactive) and 1.41 µM (inactive)	908 nM (active) and 1.12 µM (inactive)		1.82 µM (inactive) and 1.42 µM (inactive)	1.08 µM (active) and 1.17 µM (inactive)	916 nM (active) and 798 nM (active)	3.93 µM (inactive) and 2.01 µM (inactive)	243 nM (active) and 393 nM (active)	1.16 µM (inactive) and 1.36 µM (inactive)	1.29 µM (inactive) and 1.42 µM (inactive)	> 21.2 µM (inactive) and > 27.5 µM (inactive)		1.37 µM (inactive) and 1.09 µM (active)	813 nM (active) and 703 nM (active)	1.42 µM (inactive) and 2.05 µM (inactive)		1.36 µM (inactive) and 2.69 µM (inactive)
Cc1ccc(NC(=O)CC/C(CC(=O)C(C)(C)C)=N/NC(=O)c2cc3ccccc3cc2O)cc1C		35.6 µM (inactive)	32.8 µM (inactive)		> 10 µM (inactive)	38.1 µM (inactive)	20.4 µM (inactive)	29.2 µM (inactive)	32.7 µM (inactive)	36.5 µM (inactive)			20.3 µM (inactive)	32.1 µM (inactive)	50 µM (inactive)	33.6 µM (inactive)	35.2 µM (inactive)	36.6 µM (inactive)	> 100 µM (inactive)	35.2 µM (inactive)
COP(=O)(OC)/C(=C\C1=CN(C(c2ccccc2)(c2ccccc2)c2ccccc2)CN1)NC=O	15.7 µM (inactive)	16.3 µM (inactive)	20.6 µM (inactive)		25.3 µM (inactive)	18.9 µM (inactive)	18.9 µM (inactive)	21.1 µM (inactive)	16.1 µM (inactive)		17 µM (inactive)	15.9 µM (inactive)	12.8 µM (inactive)	17.8 µM (inactive)	15.9 µM (inactive)	18.3 µM (inactive)			16.6 µM (inactive)	
